In paper PMC6691809 (Mycobiology, 2019):

How the values were obtained:
[1] = target: neuraminidase from recombinant H3N2 influenza A virus (Influenza A virus, UniProt P03482); assay: biochemical; type: biochemical
[2] = target: neuraminidase from recombinant H5N1 influenza A virus (Influenza A virus, UniProt Q6DPL2); assay: biochemical
Sequence of neuraminidase from recombinant H5N1 influenza A virus (Q6DPL2 whole entry, looked up): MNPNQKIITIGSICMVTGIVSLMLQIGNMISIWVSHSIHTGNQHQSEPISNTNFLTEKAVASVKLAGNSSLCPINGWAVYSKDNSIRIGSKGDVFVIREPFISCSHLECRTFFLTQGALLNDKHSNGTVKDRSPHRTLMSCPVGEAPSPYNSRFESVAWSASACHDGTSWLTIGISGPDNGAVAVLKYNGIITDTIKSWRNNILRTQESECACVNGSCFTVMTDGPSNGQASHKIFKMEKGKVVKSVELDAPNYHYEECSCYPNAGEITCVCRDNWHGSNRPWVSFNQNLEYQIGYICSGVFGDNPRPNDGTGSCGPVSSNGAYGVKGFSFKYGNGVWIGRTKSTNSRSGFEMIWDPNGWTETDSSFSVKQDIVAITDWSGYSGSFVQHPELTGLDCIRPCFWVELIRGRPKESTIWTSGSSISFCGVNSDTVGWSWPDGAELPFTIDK

Sequence of neuraminidase from recombinant H3N2 influenza A virus (P03482 whole entry): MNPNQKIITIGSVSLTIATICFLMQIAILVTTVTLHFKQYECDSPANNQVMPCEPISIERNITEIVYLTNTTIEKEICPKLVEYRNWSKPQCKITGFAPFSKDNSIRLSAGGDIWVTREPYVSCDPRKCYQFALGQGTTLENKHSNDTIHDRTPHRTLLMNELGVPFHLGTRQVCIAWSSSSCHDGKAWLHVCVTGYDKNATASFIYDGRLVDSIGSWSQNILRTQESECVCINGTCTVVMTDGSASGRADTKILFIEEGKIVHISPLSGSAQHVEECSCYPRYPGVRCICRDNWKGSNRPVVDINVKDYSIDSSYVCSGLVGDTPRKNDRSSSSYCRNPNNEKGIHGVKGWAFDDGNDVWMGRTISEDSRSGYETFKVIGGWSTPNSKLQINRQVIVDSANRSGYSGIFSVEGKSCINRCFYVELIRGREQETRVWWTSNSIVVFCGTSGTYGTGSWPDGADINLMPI

With `C/C=C/C1=CC2=C(CO1)C(=O)[C@](C)(O)[C@H](OC(=O)c1c(C)cc(O)cc1O)C2` [Compound 3, comazaphilone D] the Inhibition type [1] was “Non-competitive (35.3)”, the Ki [1] was 35.3 µM and the IC50 ([1]; IC50 H3N2 neuraminidase) was 30.9 ± 0.1 µM. It also gave an IC50 [2] of 35.7 ± 0.2 µM.
